In PubChem BioAssay AID330 (DTP/NCI, 2004):
Values joined by “and” are separate entries in the source; they are usually repeats but may differ in a detail not shown here. Equal entries are not always repeated. Inconclusive results and toxic doses are left out.

Test system: P388 leukemia ip, CD2F1 mice, survival T/C
Assay: NCI In Vivo Anticancer Drug Screen. Data for tumor model P388 Leukemia (intraperitoneal) in CD2F1 (CDF1) mice
Details: endpoint: median survival time, higher = longer survival
In short: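 Mice carrying the transplanted tumor received test compound or vehicle. Survival was recorded in each group, and the value is the treated-group measurement divided by that of the vehicle-treated control group.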

[1] = dose: 3.12 mg/kg/injection, schedule: Q01DX005 (ip), vehicle: saline
[2] = dose: 50.0 mg/kg/injection, schedule: Q01DX005 (ip), vehicle: Klucel (hydroxypropylcellulose) (HPC)
[3] = dose: 100.0 mg/kg/injection, schedule: Q01DX005 (ip), vehicle: Klucel (hydroxypropylcellulose) (HPC)
[4] = dose: 200.0 mg/kg/injection, schedule: Q01DX005 (ip), vehicle: Klucel (hydroxypropylcellulose) (HPC)
[5] = dose: 60.0 mg/kg/injection, schedule: Q01DX005 (ip), vehicle: saline with Tween-80
[6] = dose: 120.0 mg/kg/injection, schedule: Q01DX005 (ip), vehicle: saline with Tween-80
[7] = dose: 240.0 mg/kg/injection, schedule: Q01DX005 (ip), vehicle: saline with Tween-80
[8] = dose: 50.0 mg/kg/injection, schedule: Q01DX005 (ip), vehicle: saline with Tween-80
[9] = dose: 100.0 mg/kg/injection, schedule: Q01DX005 (ip), vehicle: saline with Tween-80
[10] = dose: 200.0 mg/kg/injection, schedule: Q01DX005 (ip), vehicle: saline with Tween-80
[11] = dose: 100.0 mg/kg/injection, schedule: Q01DX009 (ip), vehicle: saline with Tween-80
[12] = dose: 200.0 mg/kg/injection, schedule: Q01DX009 (ip), vehicle: saline with Tween-80
[13] = dose: 50.0 mg/kg/injection, schedule: Q01DX009 (ip), vehicle: saline
[14] = dose: 100.0 mg/kg/injection, schedule: Q01DX009 (ip), vehicle: saline
[15] = dose: 200.0 mg/kg/injection, schedule: Q01DX009 (ip), vehicle: saline
[16] = dose: 12.5 mg/kg/injection, schedule: Q01DX009 (ip), vehicle: saline
[17] = dose: 100.0 mg/kg/injection, schedule: Q04DX003 (ip), vehicle: saline with Tween-80
[18] = dose: 200.0 mg/kg/injection, schedule: Q04DX003 (ip), vehicle: saline with Tween-80
[19] = dose: 400.0 mg/kg/injection, schedule: Q04DX003 (ip), vehicle: saline with Tween-80
[20] = dose: 50.0 mg/kg/injection, schedule: Q01DX009 (ip), vehicle: saline with Tween-80

CC1=C(c2ccccc2)OC(c2ccccc2)=C[P+]1(c1ccccc1)c1ccccc1
T/C (dose: 1.56 mg/kg/injection, schedule: Q01DX005 (ip), vehicle: saline): 105 % of control
T/C [1]: 110 % of control

O=P1(N2CCOCC2)OC(c2ccccc2)=CCN1c1ccc(Cl)cc1 (configuration not stated)
T/C [2]: 104 % of control
T/C [3]: 100 % of control
T/C [4]: 95 % of control

O=C1Nc2ccccc2C1NC(=S)Nc1ccc(Br)cc1 (configuration not stated)
T/C [5]: 91 % of control
T/C [6]: 94 % of control
T/C [7]: 88 % of control

CCn1c2ccccc2c2cc(NC(=O)NC(=O)c3ccccc3)ccc21
T/C [8]: 90 % of control
T/C [9]: 90 % of control
T/C [10]: 87 % of control

N#C/C(=C/C=C/c1ccccc1)c1ccccc1
T/C [2]: 109 % of control
T/C [3]: 102 % of control
T/C [4]: 104 % of control

O=C(O)CNC(=O)C1(N2C(=O)c3ccccc3C2=O)CCCC1
T/C [8]: 99 % of control
T/C [9]: 101 % of control
T/C [10]: 97 % of control

CN(C)c1ccc(C(=O)c2ccc(N(C)C)cc2)cc1
T/C [11]: 100 % of control
T/C [12]: 112 % of control
T/C (dose: 400.0 mg/kg/injection, schedule: Q01DX009 (ip), vehicle: saline with Tween-80): 116 % of control

COC1=CC(=Nc2ccc(N(C)C)cc2)C=CC1=O
T/C [1]: 106 % of control
T/C (dose: 6.25 mg/kg/injection, schedule: Q01DX005 (ip), vehicle: saline): 109 % of control
T/C (dose: 12.5 mg/kg/injection, schedule: Q01DX005 (ip), vehicle: saline): 106 % of control

COC(=O)c1cn(NS(=O)(=O)c2ccc(OC)cc2)cc1C(=O)OC
T/C [5]: 96 % of control
T/C [6]: 101 % of control
T/C [7]: 104 % of control

CCc1nc(-c2ccccc2)nc2c1nc(Cc1ccccc1)n2Nc1ccccc1
T/C (dose: 100.0 mg/kg/injection, schedule: Q01DX001 (ip), vehicle: Klucel (hydroxypropylcellulose) (HPC)): 88 % of control

CCON(C=Nc1ccc(Cl)c(Cl)c1)c1ccc(Cl)c(Cl)c1
T/C [13]: 103 % of control
T/C [14]: 102 % of control
T/C [15]: 91 % of control

O=C(NC1COB(c2cccc([N+](=O)[O-])c2)OC1c1ccc([N+](=O)[O-])cc1)C(Cl)Cl (configuration not stated)
T/C (dose: 60.0 mg/kg/injection, schedule: Q01DX005 (ip), vehicle: Klucel (hydroxypropylcellulose) (HPC)): 98 % of control
T/C (dose: 120.0 mg/kg/injection, schedule: Q01DX005 (ip), vehicle: Klucel (hydroxypropylcellulose) (HPC)): 98 % of control
T/C (dose: 240.0 mg/kg/injection, schedule: Q01DX005 (ip), vehicle: Klucel (hydroxypropylcellulose) (HPC)): 93 % of control

CN1CCC(=C(C#N)C(=O)O)CC1
T/C (dose: 50.0 mg/kg/injection, schedule: Q01DX005 (ip), vehicle: saline): 103 % of control
T/C (dose: 100.0 mg/kg/injection, schedule: Q01DX005 (ip), vehicle: saline): 95 % of control
T/C (dose: 200.0 mg/kg/injection, schedule: Q01DX005 (ip), vehicle: saline): 103 % of control

COc1ccc(CN)cc1OC
T/C [14]: 100 % of control
T/C [15]: 105 % of control

COc1cccc(C[n+]2ccccc2C#N)c1
T/C [16]: 100 % of control
T/C (dose: 25.0 mg/kg/injection, schedule: Q01DX009 (ip), vehicle: saline): 106 % of control
T/C [13]: 100 % of control and 96 % of control

CCOC(=O)Nc1cc(NC(=O)OCC)cc([N+](=O)[O-])c1
T/C [17]: 100 % of control
T/C [18]: 104 % of control
T/C [19]: 90 % of control

COc1cc2c(c(OC)c1OC)-c1ccc(SC)c(=O)cc1[C@@H](NC(=O)C(F)(F)F)CC2
T/C (dose: 0.08 mg/kg/injection, schedule: Q01DX009 (ip), vehicle: Klucel (hydroxypropylcellulose) (HPC)): 110 % of control and 117 % of control
T/C (dose: 0.16 mg/kg/injection, schedule: Q01DX009 (ip), vehicle: Klucel (hydroxypropylcellulose) (HPC)): 120 % of control and 124 % of control

C[CH2][Ge]([CH2]C)[CH2]C(=O)OC.C[CH2][Ge]([CH2]C)[CH2]C(=O)OC
T/C [2]: 100 % of control
T/C [3]: 100 % of control
T/C [4]: 101 % of control

NC(=S)c1cccc(OCCCOc2ccccc2)c1
T/C [2]: 96 % of control
T/C [3]: 91 % of control

Cc1cc(NC(=S)SCc2ccc3c(c2)OCO3)c([N+](=O)[O-])cc1C
T/C (dose: 50.0 mg/kg/injection, schedule: Q01DX009 (ip), vehicle: suspension in saline): 98 % of control
T/C (dose: 100.0 mg/kg/injection, schedule: Q01DX009 (ip), vehicle: suspension in saline): 100 % of control
T/C (dose: 200.0 mg/kg/injection, schedule: Q01DX009 (ip), vehicle: suspension in saline): 108 % of control

CCc1nc(N)nc(N)c1-c1ccc(NCCCN)c(N)c1
T/C (dose: 12.5 mg/kg/injection, schedule: Q01DX005 (ip), vehicle: Klucel (hydroxypropylcellulose) (HPC)): 101 % of control
T/C (dose: 25.0 mg/kg/injection, schedule: Q01DX005 (ip), vehicle: Klucel (hydroxypropylcellulose) (HPC)): 106 % of control
T/C [2]: 110 % of control and 97 % of control

CC(C)(C)N=C(CCC(C#N)(C#N)CCC(=NC(C)(C)C)Nc1ccccc1C#N)Nc1ccccc1C#N
T/C [20]: 95 % of control
T/C [11]: 92 % of control
T/C [12]: 101 % of control

Cc1c(-c2ccccc2)nc(N)n1C
T/C (dose: 5.0 mg/kg/injection, schedule: Q04DX002 (ip), vehicle: saline): 100 % of control
T/C (dose: 10.0 mg/kg/injection, schedule: Q04DX002 (ip), vehicle: saline): 99 % of control
T/C (dose: 20.0 mg/kg/injection, schedule: Q04DX002 (ip), vehicle: saline): 96 % of control

O=P(OCCN(CCOP(=O)(Oc1ccccc1)Oc1ccccc1)c1ccc2ccccc2c1)(Oc1ccccc1)Oc1ccccc1
T/C [20]: 94 % of control
T/C [11]: 86 % of control
T/C [12]: 96 % of control

C[Si](C)(C)O/C=C1/CCOC1=O
T/C [13]: 100 % of control and 87 % of control
T/C [14]: 98 % of control and 104 % of control
T/C [15]: 120 % of control
T/C (dose: 300.0 mg/kg/injection, schedule: Q01DX009 (ip), vehicle: saline): 114 % of control

OCCOc1ccc2ccccc2c1-c1c(OCCO)ccc2ccccc12
T/C (dose: 50.0 mg/kg/injection, schedule: Q04DX003 (ip), vehicle: saline with Tween-80): 100 % of control
T/C [17]: 100 % of control
T/C [18]: 100 % of control
T/C [19]: 100 % of control

COc1ccc2c([O-])c3[n+](c(OC)c2c1OC)CCc1cc2c(cc1-3)OCO2
T/C (dose: 50.0 mg/kg/injection, schedule: Q04DX002 (ip), vehicle: saline with Tween-80): 94 % of control
T/C (dose: 100.0 mg/kg/injection, schedule: Q04DX002 (ip), vehicle: saline with Tween-80): 104 % of control
T/C (dose: 200.0 mg/kg/injection, schedule: Q04DX002 (ip), vehicle: saline with Tween-80): 103 % of control

COc1ccc(/C=N/N2CN(C(C)C(=O)O)C(O)(CCl)N=C2N)cc1OC (configuration not stated)
T/C (dose: 60.0 mg/kg/injection, schedule: Q01DX005 (ip), vehicle: saline): 108 % of control
T/C (dose: 120.0 mg/kg/injection, schedule: Q01DX005 (ip), vehicle: saline): 114 % of control

C[N+](C)(C)CCC(=O)c1ccc(Cl)c(Cl)c1
T/C (dose: 3.13 mg/kg/injection, schedule: Q01DX009 (ip), vehicle: saline): 108 % of control
T/C (dose: 6.25 mg/kg/injection, schedule: Q01DX009 (ip), vehicle: saline): 112 % of control
T/C [16]: 108 % of control
